According to the kinase profiling compilation of Christmann-Franck et al. (2016):
Where “and” joins values, the source holds several entries; their conditions need not be identical. Equal entries are not always repeated.

How the values were obtained:
Assay in all cases: radiometric filter-binding kinase assay
LCK (mouse) = settings: compound 100.0 µM; ATP 50 µM; accession and sequence are those of the human protein
PRKCG (human) = PRKCG (human) (UniProt P05129); settings: compound 100.0 µM; ATP 20 µM
MAPKAPK5 (human) = MAPKAPK5 (human) (UniProt Q8IW41); settings: compound 100.0 µM; ATP 20 µM
YES1 (human) = YES1 (human) (UniProt P07947); settings: compound 100.0 µM; ATP 20 µM
STK3 (human) = STK3 (human) (UniProt Q13188); settings: compound 100.0 µM; ATP 20 µM
[1] = test system: PAK2 (human), Q13177 [T402E]; settings: compound 100.0 µM; ATP 20 µM
MAPK8 (human) = MAPK8 (human) (UniProt P45983); settings: compound 100.0 µM; ATP 20 µM
DAPK1 (human) = DAPK1 (human) (UniProt P53355); settings: compound 100.0 µM; ATP 5 µM
NEK2 (human) = NEK2 (human) (UniProt P51955); settings: compound 100.0 µM; ATP 50 µM
DYRK1A (human) = DYRK1A (human) (UniProt Q13627); settings: compound 100.0 µM; ATP 50 µM
MAP3K1 (human) = MAP3K1 (human) (UniProt Q13233); settings: compound 100.0 µM; ATP 50 µM
CSK (human) = CSK (human) (UniProt P41240); settings: compound 100.0 µM; ATP 20 µM
RPS6KA5 KD1 KD2 (human) = RPS6KA5 KD1 KD2 (human) (UniProt O75582); settings: compound 100.0 µM; ATP 20 µM
MKNK1 (human) = MKNK1 (human) (UniProt Q9BUB5); settings: compound 100.0 µM; ATP 50 µM
MAPKAPK2 (human) = MAPKAPK2 (human) (UniProt P49137); settings: compound 100.0 µM; ATP 20 µM
EEF2K (human) = EEF2K (human) (UniProt O00418); settings: compound 100.0 µM; ATP 5 µM
EPHB2 (human) = EPHB2 (human) (UniProt P29323); settings: compound 100.0 µM; ATP 20 µM
ZAP70 (human) = ZAP70 (human) (UniProt P43403); settings: compound 100.0 µM; ATP 5 µM
MAP2K6 (human) = MAP2K6 (human) (UniProt P52564); settings: compound 100.0 µM; ATP 50 µM
MAP3K5 (human) = MAP3K5 (human) (UniProt Q99683); settings: compound 100.0 µM; ATP 50 µM
RPS6KA1 KD1 KD2 (human) = RPS6KA1 KD1 KD2 (human) (UniProt Q15418); settings: compound 100.0 µM; ATP 50 µM
EPHA4 (human) = EPHA4 (human) (UniProt P54764); settings: compound 100.0 µM; ATP 50 µM
ROCK2 (rat) = settings: compound 100.0 µM; ATP 20 µM; accession and sequence are those of the human protein
MARK3 (human) = MARK3 (human) (UniProt P27448); settings: compound 100.0 µM; ATP 5 µM
TAOK1 (human) = TAOK1 (human) (UniProt Q7L7X3); settings: compound 100.0 µM; ATP 20 µM
EPHB4 (human) = EPHB4 (human) (UniProt P54760); settings: compound 100.0 µM; ATP 5 µM
MAPK11 (human) = MAPK11 (human) (UniProt Q15759); settings: compound 100.0 µM; ATP 20 µM
TEK (human) = TEK (human) (UniProt Q02763); settings: compound 100.0 µM; ATP 20 µM
MINK1 (human) = MINK1 (human) (UniProt Q8N4C8); settings: compound 100.0 µM; ATP 50 µM
RPS6KA3 KD1 KD2 (human) = RPS6KA3 KD1 KD2 (human) (UniProt P51812); settings: compound 100.0 µM; ATP 50 µM
ERBB4 (human) = ERBB4 (human) (UniProt Q15303); settings: compound 100.0 µM; ATP 5 µM
SRC (human) = SRC (human) (UniProt P12931); settings: compound 100.0 µM; ATP 50 µM
NUAK1 (human) = NUAK1 (human) (UniProt O60285); settings: compound 100.0 µM; ATP 20 µM
MKNK2 (human) = MKNK2 (human) (UniProt Q9HBH9); settings: compound 100.0 µM; ATP 50 µM
HIPK3 (human) = HIPK3 (human) (UniProt Q9H422); settings: compound 100.0 µM; ATP 20 µM
PRKACA (human) = PRKACA (human) (UniProt P17612); settings: compound 100.0 µM; ATP 20 µM
MYLK (human) = MYLK (human) (UniProt Q15746); settings: compound 100.0 µM; ATP 50 µM
BTK (human) = BTK (human) (UniProt Q06187); settings: compound 100.0 µM; ATP 50 µM
DYRK3 (human) = DYRK3 (human) (UniProt O43781); settings: compound 100.0 µM; ATP 5 µM

Sequence of ERBB4 (human) (Q15303 whole entry, looked up): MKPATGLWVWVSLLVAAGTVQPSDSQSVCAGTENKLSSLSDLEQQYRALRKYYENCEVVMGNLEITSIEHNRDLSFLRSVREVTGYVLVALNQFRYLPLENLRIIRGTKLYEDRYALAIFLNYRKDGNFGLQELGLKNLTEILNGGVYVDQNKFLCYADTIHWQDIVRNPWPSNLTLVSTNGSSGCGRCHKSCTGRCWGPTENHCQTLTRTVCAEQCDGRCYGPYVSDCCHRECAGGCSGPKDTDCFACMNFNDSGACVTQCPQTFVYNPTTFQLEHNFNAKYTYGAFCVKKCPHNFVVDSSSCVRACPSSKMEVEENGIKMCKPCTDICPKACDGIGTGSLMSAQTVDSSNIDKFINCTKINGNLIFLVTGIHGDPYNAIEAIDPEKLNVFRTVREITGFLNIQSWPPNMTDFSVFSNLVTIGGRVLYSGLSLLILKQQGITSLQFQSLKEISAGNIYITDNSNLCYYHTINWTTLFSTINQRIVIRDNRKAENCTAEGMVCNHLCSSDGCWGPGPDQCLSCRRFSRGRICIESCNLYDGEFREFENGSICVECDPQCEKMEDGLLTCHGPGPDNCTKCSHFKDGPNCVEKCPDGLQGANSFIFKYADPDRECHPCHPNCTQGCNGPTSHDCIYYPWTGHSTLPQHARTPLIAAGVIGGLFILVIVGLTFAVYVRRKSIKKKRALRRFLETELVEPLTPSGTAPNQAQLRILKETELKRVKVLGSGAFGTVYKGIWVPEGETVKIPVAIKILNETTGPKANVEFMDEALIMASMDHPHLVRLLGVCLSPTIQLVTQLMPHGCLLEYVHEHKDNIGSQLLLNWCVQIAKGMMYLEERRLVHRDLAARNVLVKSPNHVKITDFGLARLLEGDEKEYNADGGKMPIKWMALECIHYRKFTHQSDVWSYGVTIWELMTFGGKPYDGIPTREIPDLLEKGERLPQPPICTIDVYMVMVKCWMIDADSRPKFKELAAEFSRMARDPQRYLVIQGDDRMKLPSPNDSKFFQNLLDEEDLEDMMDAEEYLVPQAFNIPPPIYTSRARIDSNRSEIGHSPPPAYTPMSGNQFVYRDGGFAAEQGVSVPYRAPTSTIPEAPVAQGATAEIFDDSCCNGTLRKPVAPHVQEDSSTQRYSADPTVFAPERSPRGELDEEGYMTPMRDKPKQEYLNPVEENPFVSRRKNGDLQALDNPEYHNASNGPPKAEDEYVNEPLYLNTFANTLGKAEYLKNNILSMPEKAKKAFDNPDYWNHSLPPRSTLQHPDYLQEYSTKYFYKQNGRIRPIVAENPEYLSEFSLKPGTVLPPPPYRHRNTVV
Sequence of STK3 (human) (Q13188 whole entry, looked up): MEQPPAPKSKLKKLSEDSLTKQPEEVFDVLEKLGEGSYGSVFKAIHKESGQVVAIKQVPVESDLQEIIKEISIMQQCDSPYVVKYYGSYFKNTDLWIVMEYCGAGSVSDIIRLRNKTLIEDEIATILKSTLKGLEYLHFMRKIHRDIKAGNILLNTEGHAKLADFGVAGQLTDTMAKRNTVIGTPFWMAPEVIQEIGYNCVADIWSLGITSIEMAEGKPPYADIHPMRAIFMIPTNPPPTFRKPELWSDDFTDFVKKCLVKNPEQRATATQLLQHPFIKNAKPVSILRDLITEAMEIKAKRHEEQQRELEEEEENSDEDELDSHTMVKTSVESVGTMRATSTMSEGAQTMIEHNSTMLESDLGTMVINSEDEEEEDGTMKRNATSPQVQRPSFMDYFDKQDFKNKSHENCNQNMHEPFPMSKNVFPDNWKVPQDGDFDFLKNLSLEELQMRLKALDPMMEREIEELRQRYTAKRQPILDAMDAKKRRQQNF
Sequence of MAP3K5 (human) (Q99683 whole entry, looked up): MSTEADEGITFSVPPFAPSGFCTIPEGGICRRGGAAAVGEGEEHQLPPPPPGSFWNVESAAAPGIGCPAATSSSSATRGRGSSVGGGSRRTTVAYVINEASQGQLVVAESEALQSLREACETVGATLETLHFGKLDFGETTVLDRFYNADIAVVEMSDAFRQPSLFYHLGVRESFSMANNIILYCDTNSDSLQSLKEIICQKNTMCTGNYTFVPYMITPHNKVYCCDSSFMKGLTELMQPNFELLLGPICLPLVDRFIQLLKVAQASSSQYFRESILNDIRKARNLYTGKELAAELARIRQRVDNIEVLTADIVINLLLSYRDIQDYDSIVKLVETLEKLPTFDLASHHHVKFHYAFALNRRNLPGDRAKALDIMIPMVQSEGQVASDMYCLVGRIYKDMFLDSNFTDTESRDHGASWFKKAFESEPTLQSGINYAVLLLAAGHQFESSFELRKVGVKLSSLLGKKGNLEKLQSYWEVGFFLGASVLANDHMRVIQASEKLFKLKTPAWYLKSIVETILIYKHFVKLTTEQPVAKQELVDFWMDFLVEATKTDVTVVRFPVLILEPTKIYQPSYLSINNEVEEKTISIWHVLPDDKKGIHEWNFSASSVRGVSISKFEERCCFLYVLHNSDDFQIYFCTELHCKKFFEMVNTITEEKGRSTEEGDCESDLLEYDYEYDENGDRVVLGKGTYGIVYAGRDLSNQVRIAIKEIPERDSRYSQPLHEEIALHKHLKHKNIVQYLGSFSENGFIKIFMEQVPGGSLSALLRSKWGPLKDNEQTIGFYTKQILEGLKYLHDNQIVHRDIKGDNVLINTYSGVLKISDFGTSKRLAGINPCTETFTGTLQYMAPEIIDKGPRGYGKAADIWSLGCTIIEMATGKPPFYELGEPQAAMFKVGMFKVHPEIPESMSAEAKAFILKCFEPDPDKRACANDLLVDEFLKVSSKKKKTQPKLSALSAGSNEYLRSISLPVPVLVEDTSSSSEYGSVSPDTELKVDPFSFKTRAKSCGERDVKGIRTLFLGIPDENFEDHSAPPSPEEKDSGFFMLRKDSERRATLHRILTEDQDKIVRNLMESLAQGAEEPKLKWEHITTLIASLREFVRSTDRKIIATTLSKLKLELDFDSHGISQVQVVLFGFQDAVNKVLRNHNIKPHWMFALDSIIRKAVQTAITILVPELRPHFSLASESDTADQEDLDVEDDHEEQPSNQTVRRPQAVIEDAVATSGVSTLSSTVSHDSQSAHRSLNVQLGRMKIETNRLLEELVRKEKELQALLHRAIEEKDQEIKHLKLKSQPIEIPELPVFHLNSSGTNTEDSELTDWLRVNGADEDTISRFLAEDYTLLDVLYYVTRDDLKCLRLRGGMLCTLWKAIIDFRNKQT
Sequence of HIPK3 (human) (Q9H422 whole entry, looked up): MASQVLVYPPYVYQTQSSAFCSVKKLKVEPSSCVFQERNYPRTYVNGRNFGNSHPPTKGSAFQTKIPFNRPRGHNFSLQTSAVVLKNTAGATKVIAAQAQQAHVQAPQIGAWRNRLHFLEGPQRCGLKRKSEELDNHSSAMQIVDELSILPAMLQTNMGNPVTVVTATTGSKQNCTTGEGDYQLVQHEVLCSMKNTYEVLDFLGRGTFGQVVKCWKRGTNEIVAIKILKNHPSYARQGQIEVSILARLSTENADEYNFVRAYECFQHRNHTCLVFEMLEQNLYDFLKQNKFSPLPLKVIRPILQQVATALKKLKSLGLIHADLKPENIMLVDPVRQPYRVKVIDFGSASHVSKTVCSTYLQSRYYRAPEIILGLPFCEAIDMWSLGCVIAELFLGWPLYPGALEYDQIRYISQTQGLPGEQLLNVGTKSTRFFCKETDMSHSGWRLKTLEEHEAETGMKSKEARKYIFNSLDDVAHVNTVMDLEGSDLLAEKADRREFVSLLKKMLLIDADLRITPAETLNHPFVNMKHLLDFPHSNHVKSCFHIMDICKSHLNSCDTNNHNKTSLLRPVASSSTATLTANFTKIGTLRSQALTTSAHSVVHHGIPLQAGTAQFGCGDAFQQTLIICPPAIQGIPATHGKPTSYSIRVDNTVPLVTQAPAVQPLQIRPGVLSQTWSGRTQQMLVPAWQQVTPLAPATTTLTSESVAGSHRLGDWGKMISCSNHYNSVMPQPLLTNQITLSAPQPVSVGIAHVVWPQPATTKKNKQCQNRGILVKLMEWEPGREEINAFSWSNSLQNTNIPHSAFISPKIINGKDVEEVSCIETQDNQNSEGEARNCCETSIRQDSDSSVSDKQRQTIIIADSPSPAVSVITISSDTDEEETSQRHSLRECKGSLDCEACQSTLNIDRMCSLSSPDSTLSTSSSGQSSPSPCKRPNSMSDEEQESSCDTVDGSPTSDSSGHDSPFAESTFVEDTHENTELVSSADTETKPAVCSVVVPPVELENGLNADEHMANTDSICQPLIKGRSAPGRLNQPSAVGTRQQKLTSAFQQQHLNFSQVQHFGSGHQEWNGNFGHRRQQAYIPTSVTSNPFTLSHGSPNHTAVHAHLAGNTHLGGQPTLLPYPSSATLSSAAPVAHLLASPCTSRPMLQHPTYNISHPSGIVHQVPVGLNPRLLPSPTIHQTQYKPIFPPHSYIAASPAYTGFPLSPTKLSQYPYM
Sequence of ZAP70 (human) (P43403 whole entry, looked up): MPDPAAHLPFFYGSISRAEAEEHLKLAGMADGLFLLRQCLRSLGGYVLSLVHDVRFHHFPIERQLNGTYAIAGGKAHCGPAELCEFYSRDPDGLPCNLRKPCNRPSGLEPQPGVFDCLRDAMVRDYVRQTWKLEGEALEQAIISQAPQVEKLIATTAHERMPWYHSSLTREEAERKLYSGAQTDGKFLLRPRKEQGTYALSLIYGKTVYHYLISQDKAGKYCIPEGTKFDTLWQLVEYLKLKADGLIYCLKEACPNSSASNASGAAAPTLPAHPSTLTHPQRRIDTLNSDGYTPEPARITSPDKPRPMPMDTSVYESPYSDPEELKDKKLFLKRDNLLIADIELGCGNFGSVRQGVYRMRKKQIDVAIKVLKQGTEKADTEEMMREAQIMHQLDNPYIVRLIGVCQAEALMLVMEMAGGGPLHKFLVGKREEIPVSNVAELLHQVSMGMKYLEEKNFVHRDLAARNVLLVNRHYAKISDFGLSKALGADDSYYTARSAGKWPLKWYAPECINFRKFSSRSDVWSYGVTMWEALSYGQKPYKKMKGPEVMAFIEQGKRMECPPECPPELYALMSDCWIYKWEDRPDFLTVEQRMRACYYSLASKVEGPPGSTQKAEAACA

Structure (SMILES)	inhibition (LCK (mouse))	inhibition (PRKCG (human))	inhibition (MAPKAPK5 (human))	inhibition (YES1 (human))	inhibition (STK3 (human))	inhibition [1]	inhibition (MAPK8 (human))	inhibition (DAPK1 (human))	inhibition (NEK2 (human))	inhibition (DYRK1A (human))	inhibition (MAP3K1 (human))	inhibition (CSK (human))	inhibition (RPS6KA5 KD1 KD2 (human))	inhibition (MKNK1 (human))	inhibition (MAPKAPK2 (human))	inhibition (EEF2K (human))	inhibition (EPHB2 (human))	inhibition (ZAP70 (human))	inhibition (MAP2K6 (human))	inhibition (MAP3K5 (human))	also measured
COc1ccc(NC(=S)Nc2cnc3[nH]cnn3c2=O)cn1	0%	0%	3%	30%	0%	17%	2%	5%	0%	10%	0%	20%	28%	3%	26%	10%	22%	23%	0%	16%	inhibition (RPS6KA1 KD1 KD2 (human)): 19%; inhibition (EPHA4 (human)): 22%; inhibition (ROCK2 (rat)): 7%; inhibition (MARK3 (human)): 17%; inhibition (TAOK1 (human)): 0%; inhibition (EPHB4 (human)): 1%; inhibition (MAPK11 (human)): 0%; inhibition (TEK (human)): 0%; inhibition (MINK1 (human)): 16%; inhibition (RPS6KA3 KD1 KD2 (human)): 47%; inhibition (ERBB4 (human)): 31%; inhibition (SRC (human)): 38%; inhibition (NUAK1 (human)): 0%; inhibition (MKNK2 (human)): 0%; inhibition (HIPK3 (human)): 0%; inhibition (PRKACA (human)): 0% and 14%; inhibition (MYLK (human)): 0%; inhibition (BTK (human)): 25%; inhibition (DYRK3 (human)): 20%
CC(=O)Nc1nc2cnc(-c3ccccc3)cn2n1	29%	2%	6%	35%	0%	0%	2%	12%	25%	43%	9%	29%	11%	53%	7%	13%	4%	16%	0%	25%	inhibition (RPS6KA1 KD1 KD2 (human)): 24%; inhibition (EPHA4 (human)): 19%; inhibition (ROCK2 (rat)): 25%; inhibition (MARK3 (human)): 38%; inhibition (TAOK1 (human)): 0%; inhibition (EPHB4 (human)): 11%; inhibition (MAPK11 (human)): 22%; inhibition (TEK (human)): 11%; inhibition (MINK1 (human)): 58%; inhibition (RPS6KA3 KD1 KD2 (human)): 9%; inhibition (ERBB4 (human)): 19%; inhibition (SRC (human)): 18%; inhibition (NUAK1 (human)): 33%; inhibition (MKNK2 (human)): 35%; inhibition (HIPK3 (human)): 0%; inhibition (PRKACA (human)): 0%; inhibition (MYLK (human)): 0%; inhibition (BTK (human)): 28%; inhibition (DYRK3 (human)): 69%
Nc1cnc2c(-c3c(F)cccc3F)cccn2c1=O	39%	25%	83%	57%	64%	41%	41%	0%	0%	55%	21%	11%	33%	1%	20%	16%	29%	1%	10%	86%	inhibition (RPS6KA1 KD1 KD2 (human)): 21%; inhibition (EPHA4 (human)): 25%; inhibition (ROCK2 (rat)): 76%; inhibition (MARK3 (human)): 86%; inhibition (TAOK1 (human)): 82%; inhibition (EPHB4 (human)): 39%; inhibition (MAPK11 (human)): 13%; inhibition (TEK (human)): 42%; inhibition (MINK1 (human)): 75%; inhibition (RPS6KA3 KD1 KD2 (human)): 52%; inhibition (ERBB4 (human)): 65%; inhibition (SRC (human)): 35%; inhibition (NUAK1 (human)): 76%; inhibition (MKNK2 (human)): 6%; inhibition (HIPK3 (human)): 23%; inhibition (PRKACA (human)): 8% and 12%; inhibition (MYLK (human)): 25%; inhibition (BTK (human)): 67%; inhibition (DYRK3 (human)): 12%
